e = 2'-O-(2-methoxyethyl) (MOE); d = 2'-deoxy (DNA)
Tested on: extrinsic pathway of blood coagulation
Assay: Prothrombin Time (PT) in platelet poor plasma of treated mice, reported as INR
Format: in vivo, mouse
Experimental: Prothrombin Time (PT) and Activated Partial Thromboplastin Time (aPTT) were measured using platelet poor plasma (PPP) from mice treated with ISIS 403102. PT and aPTT values provided in Table 20 are reported as International Normalized Ratio (INR) values. INR values for PT and aPTT were determined by dividing the PT or aPTT value for the experimental group by the PT or aPTT for the PBS treated group. This ratio was then raised to the power of the International Sensitivity Index (ISI) of the tissue factor used.
Prothrombin Time (PT) and Activated Partial Thromboplastin Time (aPTT) were measured using platelet poor plasma (PPP) from mice treated with ISIS 403102. PT and aPTT values provided in Table 22 are reported as International Normalized Ratio (INR) values. INR values for PT and aPTT were determined by dividing the PT or aPTT value for the experimental group (i.e. 50 mg/kg treatment with ISIS 403102) by the PT or aPTT for the PBS treated group. This ratio was then raised to the power of the International Sensitivity Index (ISI) of the tissue factor used.
Prothrombin Time (PT) and Activated Partial Thromboplastin Time (aPTT) were measured using platelet poor plasma (PPP) from mice treated with ISIS 403102. PT and aPTT values provided in Table 24 are reported as International Normalized Ratio (INR) values. INR values for PT and aPTT were determined by dividing the PT or aPTT value for the experimental group (i.e. 50 mg/kg treatment with ISIS 403102) by the PT or aPTT for the PBS treated group. This ratio was then raised to the power of the International Sensitivity Index (ISI) of the tissue factor used.

With “CCATAGAACAGCTTCACAGG (sugars from the 5' end e5 d10 e5, backbone and methylation of C not given here) [ISIS 403102]” the “PT INR” value (BALB/c mice, 5 mg/kg s.c. twice a week for 3 weeks) was 1.09, the “PT INR” value (BALB/c mice, 10 mg/kg s.c. twice a week for 3 weeks) was 1.33 and the “PT INR” value (BALB/c mice, 25 mg/kg s.c. twice a week for 3 weeks) was 2.33. The “PT INR” value (BALB/c mice, 50 mg/kg s.c. twice a week for 3 weeks) was 4.37, the “PT INR” value (BALB/c mice, 50 mg/kg, 1 dose, 1 day after last dose) was 1.04 and the “PT INR” value (BALB/c mice, 50 mg/kg, 1 dose, 3 days after last dose) was 1.20. The “PT INR” value (BALB/c mice, 50 mg/kg, 2 doses, 3 days after last dose) was 1.43, the “PT INR” value (BALB/c mice, 50 mg/kg, 4 doses, 3 days after last dose) was 2.13 and the “PT INR” value (BALB/c mice, 50 mg/kg, 6 doses, 2 days after last dose) was 1.64. The “PT INR” value (BALB/c mice, 50 mg/kg, 6 doses, 7 days after last dose) was 2.08, the “PT INR” value (BALB/c mice, 50 mg/kg, 6 doses, 14 days after last dose) was 1.37 and the “PT INR” value (BALB/c mice, 50 mg/kg, 6 doses, 28 days after last dose) was 0.96. For the same sequence, the “PT INR” value (BALB/c mice, 50 mg/kg, 6 doses, 42 days after last dose) was 1.00, the “PT INR” value (BALB/c mice, 50 mg/kg, 6 doses, 56 days after last dose) was 0.99 and the “PT INR” value (BALB/c mice, single dose 50 mg/kg, day 1) was 1.11. For the same sequence, the “PT INR” value (BALB/c mice, single dose 50 mg/kg, day 2) was 1.64, the “PT INR” value (BALB/c mice, single dose 50 mg/kg, day 3) was 1.81 and the “PT INR” value (BALB/c mice, single dose 50 mg/kg, day 4) was 1.97. For the same sequence, the “PT INR” value (BALB/c mice, single dose 50 mg/kg, day 6) was 1.59, the “PT INR” value (BALB/c mice, single dose 50 mg/kg, day 8) was 1.55 and the “PT INR” value (BALB/c mice, single dose 50 mg/kg, day 12) was 1.30. The “PT INR” value (BALB/c mice, single dose 50 mg/kg, day 24) was 1.12, the “PT INR” value (BALB/c mice, single dose 50 mg/kg, day 56) was 1.10 and the “PT compared to the control” value (Example 11, 5-50 mg/kg sc twice a week for 3 weeks) was “significantly prolonged”. For the same sequence, the PT over time (Example 13, 6 doses, day 7 to day 56) was “PT decreased”, the “PT INR” value (single dose 50 mg/kg, day 1) was 1.11 INR and the “PT INR” value (single dose 50 mg/kg, day 4) was 1.97 INR. For the same sequence, the “PT INR” value (single dose 50 mg/kg, day 56) was 1.10 INR.

— patent publication US20120214862A1, “MODULATION OF FACTOR 7 EXPRESSION” (ISIS Pharmaceuticals, Inc., priority 2009, published 2012)
